Laboratory results as given in PubChem BioAssay (NCI).
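Tested at 5 concentrations; 48 h exposure; 96-well plates; endpoints linearly interpolated, else capped at highest concentration. At the TGI there is no net growth.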 Where a SMILES comes first, the peptide text is derived from it. The star is where a group is joined. Boc = CC(C)(C)OC(=O)*; Bn = c1ccc(C*)cc1

Tests used:
Test in all cases: inhibition of tumour cell growth, NCI panel, 48 h
[1] = tested on: HCT-15 colon
[2] = tested on: NCI/ADR-RES ovarian
[3] = tested on: SN12C renal
[4] = tested on: MALME-3M melanoma
[5] = tested on: OVCAR-4 ovarian
[6] = tested on: BT-549 breast
[7] = tested on: COLO 205 colon
[8] = tested on: IGROV1 ovarian
[9] = tested on: K-562 leukemia
[10] = tested on: T-47D breast
[11] = tested on: SNB-75 CNS
[12] = tested on: RPMI-8226 leukemia
[13] = tested on: SK-MEL-2 melanoma
[14] = tested on: M14 melanoma

| Structure (SMILES) | TGI [1] | TGI [2] | TGI [3] | TGI [4] | TGI [5] | TGI [6] | TGI [7] | TGI [8] | TGI [9] | TGI [10] | TGI [11] | TGI [12] | TGI [13] | TGI [14] |
| --- | --- | --- | --- | --- | --- | --- | --- | --- | --- | --- | --- | --- | --- | --- |
| CC(CC(C)[C@H]1CCC2[C@H]3C(CC(=O)[C@@]21C)[C@@]1(C)CCC(O)C[C@H]1C[C@@H]3O)C(=O)O (stereo not given in full) | > 100 µM | > 100 µM | > 100 µM | > 100 µM | > 100 µM | > 100 µM | > 100 µM | > 100 µM | > 100 µM | > 100 µM | > 100 µM | > 100 µM | > 100 µM | > 100 µM |
| COC(=O)/C=C1/OC(c2ccc(C)cc2C)=CC1=O | 29.3 µM | 42.3 µM | – | 29.9 µM | – | 29.9 µM | 30.2 µM | 22 µM | 10.8 µM | 38.4 µM | 29.4 µM | > 100 µM | – | 31.1 µM |
| COC(=O)/C(C#N)=C(/NCc1ccccc1)Nc1ccccc1 | > 100 µM | > 100 µM | > 100 µM | > 100 µM | > 100 µM | > 100 µM | > 100 µM | > 100 µM | > 100 µM | > 100 µM | > 100 µM | > 100 µM | > 100 µM | > 100 µM |
| O=C(/C=C/c1ccccc1Br)c1ccccc1 | 6.36 µM | 17.7 µM | 21.7 µM | – | 6.03 µM | 26.4 µM | 28.6 µM | 9.91 µM | 5.14 µM | 15.5 µM | 25.4 µM | – | 31.3 µM | 15.1 µM |
| C=C1C(=O)OC2/C=C(\C)CC/C=C(\C)CC(OC(=O)/C(=C/CO)CO)[C@@H]12 (stereo not given in full) | 29.7 µM | 59.6 µM | 27.2 µM | 5.81 µM | 27.5 µM | 26.5 µM | 5.4 µM | 26.1 µM | 9.21 µM | 15.9 µM | 29.8 µM | 5.74 µM | 34.6 µM | 11.4 µM |
| CN(C)c1cccc(/C=C(\C#N)c2ccccc2)c1 | > 58.4 µM | 3.5 µM | > 100 µM | > 73.7 µM | 98 µM | > 100 µM | 5.41 µM | > 72.5 µM | > 14.4 µM | 86.5 µM | 5.05 µM | > 42.8 µM | 47.5 µM | > 47.2 µM |
| COc1ccc2c(c1)C1c3ccccc3CCN1CCC2 (stereo not given) | > 100 µM | > 100 µM | > 100 µM | – | > 100 µM | 68.2 µM | > 100 µM | > 100 µM | > 100 µM | > 100 µM | 64.2 µM | 96.8 µM | 70.8 µM | > 100 µM |
| Cc1ccc(S(=O)(=O)NC(=O)NCC(N)=O)cc1 | > 100 µM | > 100 µM | > 100 µM | > 100 µM | > 100 µM | > 100 µM | > 100 µM | > 100 µM | > 100 µM | > 100 µM | > 100 µM | > 100 µM | > 100 µM | > 100 µM |
| Cc1ccc(S(=O)(=O)OI(O)CC(F)(F)F)cc1 | > 100 µM | > 100 µM | > 100 µM | – | > 100 µM | > 100 µM | > 100 µM | > 100 µM | > 100 µM | > 100 µM | > 100 µM | > 100 µM | > 100 µM | > 100 µM |
| CN(C(=O)c1cc2c(s1)sc1c(=O)n(C)c3ccccc3c12)c1ccccc1 | > 100 µM | 77.1 µM | > 100 µM | > 100 µM | > 100 µM | > 100 µM | > 100 µM | > 100 µM | > 100 µM | > 100 µM | > 100 µM | – | > 100 µM | > 100 µM |
| CC(C)(C)Cc1cc(O)ccc1O | > 100 µM | 94.5 µM | > 100 µM | > 100 µM | > 100 µM | > 100 µM | > 100 µM | > 100 µM | > 100 µM | > 100 µM | > 100 µM | – | – | > 100 µM |
| COC(=O)C(CC(C)C)NC(=O)CNC(=O)C(Cc1ccc(OCc2ccccc2)cc1)NC(=O)C(COCc1ccccc1)NC(=O)OC(C)(C)C (stereo not given) (Boc-S(Bn)Y(Bn)GL-OMe; configuration not given here) | – | > 100 µM | > 100 µM | > 100 µM | > 100 µM | > 100 µM | > 100 µM | > 100 µM | > 100 µM | > 100 µM | > 100 µM | > 100 µM | – | > 100 µM |
| N#CCCN(CCCN(C(=O)Nc1ccc(NC(=O)N(CCCN(CCC#N)C(N)=O)c2ccccc2)cc1)c1ccccc1)C(N)=O | > 100 µM | > 100 µM | – | > 100 µM | > 100 µM | > 100 µM | > 100 µM | – | > 100 µM | > 100 µM | > 100 µM | > 100 µM | > 100 µM | > 100 µM |
| CC(C(=O)O)C1Nc2ccccc2NC1=O (stereo not given) | > 100 µM | > 100 µM | – | > 100 µM | > 100 µM | > 100 µM | > 100 µM | > 100 µM | > 100 µM | > 100 µM | > 100 µM | > 100 µM | > 100 µM | > 100 µM |
| COC(=O)C1Cc2c([nH]c3ccccc23)-c2[nH]c3ccccc3c2CC(NC(C)=O)C(=O)NCC(=O)NCC(=O)N1 (stereo not given) | > 100 µM | > 100 µM | > 100 µM | > 100 µM | – | > 100 µM | > 100 µM | > 100 µM | > 100 µM | > 100 µM | > 100 µM | > 100 µM | > 100 µM | > 100 µM |
| N#CCN1CCN(CC#N)CCN(CC#N)CCN(CC#N)CC1 | – | > 100 µM | > 100 µM | > 100 µM | > 100 µM | > 100 µM | > 100 µM | > 100 µM | > 100 µM | > 100 µM | > 100 µM | > 100 µM | > 100 µM | > 100 µM |
| O=S1(=O)c2ccccc2-c2nccc3ccnc1c23 | – | > 100 µM | 94.1 µM | > 100 µM | > 100 µM | 35.4 µM | 65.8 µM | > 100 µM | > 100 µM | > 100 µM | 83.7 µM | 85.6 µM | > 100 µM | > 100 µM |
